Reference: patent US11000033B2, “Ketone or oxime compound, and herbicide” (NISSAN CHEMICAL CORPORATION, priority 2014, dated 2021)

Experiments:
Assay type in all cases: in vivo
beet = test: Test Example 5: effect on crop by foliage application, plastic box (symbol f); details: 320 g/ha, 3 weeks after application
In short: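 Seeds were sown in spots in sterilized diluvial soil held in a plastic box 21 cm × 13 cm × 7 cm deep, covered with about 1.5 cm of soil, and grown in a greenhouse at 25° C. to 30° C.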

Digitaria ciliaris [1] = test: Test Example 5: herbicidal effect by foliage application, plastic box (symbol F); details: 320 g/ha, 3 weeks after application
In short: (§1)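 Greenhouse foliar test: seedlings at 14 days, grown 25° C. to 30° C. in sterilized diluvial soil; compound applied as an aqueous dilution of an emulsion; response read 3 weeks after spraying.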

wheat = test: Test Example 4: effect on crop by soil treatment (symbol e); details: application herbicide amount 320 g/ha
In short: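 Plants grew in a 25° C. to 30° C. greenhouse after spot-sowing of seeds, including beet, rapeseed, wheat and rice, into sterilized diluvial soil under roughly 1.5 cm of cover soil.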

transplanted rice plant = test: Test Example 1: effect on crop, application before weed generation in submerged conditions (symbol a); details: application herbicide amount 320 g/ha
In short: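 Rice at 2.5 leaf stage transplanted into submerged soil (4 cm depth) sown with three weed species; herbicide applied before weed emergence.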

Stellaria media = test: Test Example 5: herbicidal effect by foliage application, plastic box (symbol P); details: 320 g/ha, 3 weeks after application
In short: as §1

Chenopodium album [2] = test: Test Example 5: herbicidal effect by foliage application, plastic box (symbol O); details: 320 g/ha, 3 weeks after application
In short: as §1

Setaria viridis = test: Test Example 4: herbicidal effect by soil treatment (symbol G); details: application herbicide amount 320 g/ha
In short: (§2)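 Seeds were sown in sterilized diluvial soil, covered with about 1.5 cm of soil, and the soil surface was sprayed with a water-diluted emulsion of the compound at a predetermined rate. Plants grew in a greenhouse at 25° C. to 30° C.; effects were scored visually 3 weeks after application.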

Alopecurus myosuroides = test: Test Example 5: herbicidal effect by foliage application, plastic box (symbol J); details: 320 g/ha, 3 weeks after application
In short: as §1

Galium spurium = test: Test Example 4: herbicidal effect by soil treatment (symbol Q); details: application herbicide amount 320 g/ha
In short: as §2

Amaranthus retroflexus = test: Test Example 4: herbicidal effect by soil treatment (symbol N); details: application herbicide amount 320 g/ha
In short: as §2

Chenopodium album [3] = test: Test Example 4: herbicidal effect by soil treatment (symbol O); details: application herbicide amount 320 g/ha
In short: as §2

Lolium multiflorum Lam. [4] = test: Test Example 5: herbicidal effect by foliage application, plastic box (symbol K); details: 320 g/ha, 3 weeks after application
In short: as §1

[5] = tested on: directly sowed rice plant; test: Test Example 3: effect on crop by foliage application, Wagner pot (symbol b); details: application herbicide amount 320 g/ha
In short: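 Alluvial soil in a 1/10000-are Wagner pot was flooded to a water depth of 0.1–0.5 cm. Echinochloa crus-galli var. crus-galli, Leptochloa chinensis, Cyperus difformis and rice were sown into it and grown in a greenhouse at 25–30 °C.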

Digitaria ciliaris [6] = test: Test Example 4: herbicidal effect by soil treatment (symbol F); details: application herbicide amount 320 g/ha
In short: as §2

[7] = tested on: Echinochloa crus-galli var. crus-galli; test: Test Example 3: herbicidal effect by foliage application, Wagner pot (symbol H); details: application herbicide amount 320 g/ha
In short: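 Weeds and rice were sown in alluvial soil under 0.1–0.5 cm of standing water and grown for 14 days in a 25–30 °C greenhouse. An emulsion of the compound, diluted in water to a set dose, was sprayed evenly onto the foliage. Effect was scored against fixed criteria 3 weeks after treatment.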

Veronica persica = test: Test Example 4: herbicidal effect by soil treatment (symbol R); details: application herbicide amount 320 g/ha
In short: as §2

Lolium multiflorum Lam. [8] = test: Test Example 4: herbicidal effect by soil treatment (symbol K); details: application herbicide amount 320 g/ha
In short: as §2

Abutilon theophrasti = test: Test Example 5: herbicidal effect by foliage application, plastic box (symbol M); details: 320 g/ha, 3 weeks after application
In short: as §1

Row | SMILES | f: beet, effect on crop (criteria of Test Example 1) (beet) | F: Digitaria ciliaris, herbicidal effect (criteria of Test Example 1) (Digitaria ciliaris [1]) | e: wheat, effect on crop grade (wheat) | Effect grade on crop, a: transplanted rice plant (transplanted rice plant) | P: Stellaria media, herbicidal effect (criteria of Test Example 1) (Stellaria media) | O: Chenopodium album, herbicidal effect (criteria of Test Example 1) (Chenopodium album [2]) | G: Setaria viridis, herbicidal effect grade (Setaria viridis) | J: Alopecurus myosuroides, herbicidal effect (criteria of Test Example 1) (Alopecurus myosuroides) | Q: Galium spurium, herbicidal effect grade (Galium spurium) | N: Amaranthus retroflexus, herbicidal effect grade (Amaranthus retroflexus) | O: Chenopodium album, herbicidal effect grade (Chenopodium album [3]) | K: Lolium multiflorum Lam., herbicidal effect (criteria of Test Example 1) (Lolium multiflorum Lam. [4]) | effect on crop b (directly sowed rice plant), grade 0-5 [5] | F: Digitaria ciliaris, herbicidal effect grade (Digitaria ciliaris [6]) | herbicidal effect on H (Echinochloa crus-galli var. crus-galli), grade 0-5 [7] | R: Veronica persica, herbicidal effect grade (Veronica persica) | K: Lolium multiflorum Lam., herbicidal effect grade (Lolium multiflorum Lam. [8]) | M: Abutilon theophrasti, herbicidal effect (criteria of Test Example 1) (Abutilon theophrasti) | Effect on crop grade, e: wheat (wheat) | Herbicidal effect grade, G: Setaria viridis (Setaria viridis) | further results
1 | CON=C(C)CC1CC(OC(=O)N2CCOCC2)=C(c2c(C)cc(-c3ccc(F)cc3)cc2C)C1=O (mixture of isomers) [6-059] | 0 (Herbicidal ratio of 5% or lower (almost no effect)) | 5 (Herbicidal ratio of 90% or more (almost completely withered)) | 0 (Herbicidal ratio of 5% or lower (almost no effect)) | 5 (Herbicidal ratio of 90% or more (almost completely withered)) | 4 (Herbicidal ratio of 70% or higher and lower than 90%) | 5 (Herbicidal ratio of 90% or more (almost completely withered)) | 5 (Herbicidal ratio of 90% or more (almost completely withered)) | 5 (Herbicidal ratio of 90% or more (almost completely withered)) | 3 (Herbicidal ratio of 40% or higher and lower than 70%) | 0 (Herbicidal ratio of 5% or lower (almost no effect)) | 0 (Herbicidal ratio of 5% or lower (almost no effect)) | 5 (Herbicidal ratio of 90% or more (almost completely withered)) | 5 (Herbicidal ratio of 90% or more (almost completely withered)) | 5 (Herbicidal ratio of 90% or more (almost completely withered)) | 5 (Herbicidal ratio of 90% or more (almost completely withered)) | 3 (Herbicidal ratio of 40% or higher and lower than 70%) | 1 (Herbicidal ratio of 5% or higher and lower than 20%) | 5 (Herbicidal ratio of 90% or more (almost completely withered)) | – | – | –
2 | CCc1cc(Br)cc(C)c1C1=C(O)CC(CC(C)=O)C1=O (stereo not drawn) [7-003] | 0 (Herbicidal ratio of 5% or lower (almost no effect)) | 5 (Herbicidal ratio of 90% or more (almost completely withered)) | – | 0 (Herbicidal ratio of 5% or lower (almost no effect)) | 0 (Herbicidal ratio of 5% or lower (almost no effect)) | 0 (Herbicidal ratio of 5% or lower (almost no effect)) | – | 5 (Herbicidal ratio of 90% or more (almost completely withered)) | – | – | – | 5 (Herbicidal ratio of 90% or more (almost completely withered)) | 5 (Herbicidal ratio of 90% or more (almost completely withered)) | – | 5 (Herbicidal ratio of 90% or more (almost completely withered)) | – | – | 0 (Herbicidal ratio of 5% or lower (almost no effect)) | 0 (Herbicidal ratio of 5% or lower (almost no effect)) | 5 (Herbicidal ratio of 90% or more (almost completely withered)) | Herbicidal effect grade, Q: Galium spurium (Galium spurium): 0 (Herbicidal ratio of 5% or lower (almost no effect)); Herbicidal effect grade, N: Amaranthus retroflexus (Amaranthus retroflexus): 0 (Herbicidal ratio of 5% or lower (almost no effect)); Herbicidal effect grade, O: Chenopodium album (Chenopodium album [3]): 0 (Herbicidal ratio of 5% or lower (almost no effect)); Herbicidal effect grade, F: Digitaria ciliaris (Digitaria ciliaris [6]): 5 (Herbicidal ratio of 90% or more (almost completely withered)); Herbicidal effect grade, R: Veronica persica (Veronica persica): 0 (Herbicidal ratio of 5% or lower (almost no effect)); Herbicidal effect grade, K: Lolium multiflorum Lam. (Lolium multiflorum Lam. [8]): 5 (Herbicidal ratio of 90% or more (almost completely withered))
3 | CC(=O)CC1CC(O)=C(c2c(C)cc(-c3ccc(C)cc3)cc2C)C1=O (stereo not drawn) [7-007] | 0 (Herbicidal ratio of 5% or lower (almost no effect)) | 5 (Herbicidal ratio of 90% or more (almost completely withered)) | – | 5 (Herbicidal ratio of 90% or more (almost completely withered)) | 0 (Herbicidal ratio of 5% or lower (almost no effect)) | 2 (Herbicidal ratio of 20% or higher and lower than 40%) | – | 5 (Herbicidal ratio of 90% or more (almost completely withered)) | – | – | – | 5 (Herbicidal ratio of 90% or more (almost completely withered)) | 5 (Herbicidal ratio of 90% or more (almost completely withered)) | – | 5 (Herbicidal ratio of 90% or more (almost completely withered)) | – | – | 0 (Herbicidal ratio of 5% or lower (almost no effect)) | 0 (Herbicidal ratio of 5% or lower (almost no effect)) | 4 (Herbicidal ratio of 70% or higher and lower than 90%) | Herbicidal effect grade, Q: Galium spurium (Galium spurium): 0 (Herbicidal ratio of 5% or lower (almost no effect)); Herbicidal effect grade, N: Amaranthus retroflexus (Amaranthus retroflexus): 0 (Herbicidal ratio of 5% or lower (almost no effect)); Herbicidal effect grade, O: Chenopodium album (Chenopodium album [3]): 0 (Herbicidal ratio of 5% or lower (almost no effect)); Herbicidal effect grade, F: Digitaria ciliaris (Digitaria ciliaris [6]): 4 (Herbicidal ratio of 70% or higher and lower than 90%); Herbicidal effect grade, R: Veronica persica (Veronica persica): 0 (Herbicidal ratio of 5% or lower (almost no effect)); Herbicidal effect grade, K: Lolium multiflorum Lam. (Lolium multiflorum Lam. [8]): 5 (Herbicidal ratio of 90% or more (almost completely withered))
4 | CON=C(C)CC1CC(O)=C(c2c(C)cc(-n3cccn3)cc2C)C1=O (stereo not drawn) [6-073] | 0 (Herbicidal ratio of 5% or lower (almost no effect)) | 5 (Herbicidal ratio of 90% or more (almost completely withered)) | 2 (Herbicidal ratio of 20% or higher and lower than 40%) | 5 (Herbicidal ratio of 90% or more (almost completely withered)) | 2 (Herbicidal ratio of 20% or higher and lower than 40%) | 3 (Herbicidal ratio of 40% or higher and lower than 70%) | 5 (Herbicidal ratio of 90% or more (almost completely withered)) | 5 (Herbicidal ratio of 90% or more (almost completely withered)) | 0 (Herbicidal ratio of 5% or lower (almost no effect)) | 0 (Herbicidal ratio of 5% or lower (almost no effect)) | 0 (Herbicidal ratio of 5% or lower (almost no effect)) | 5 (Herbicidal ratio of 90% or more (almost completely withered)) | 5 (Herbicidal ratio of 90% or more (almost completely withered)) | 5 (Herbicidal ratio of 90% or more (almost completely withered)) | 5 (Herbicidal ratio of 90% or more (almost completely withered)) | 0 (Herbicidal ratio of 5% or lower (almost no effect)) | 5 (Herbicidal ratio of 90% or more (almost completely withered)) | 0 (Herbicidal ratio of 5% or lower (almost no effect)) | – | – | –
